Literature values in US20240350500A1, “PLK1 INHIBITOR IN COMBINATION WITH ANTI-ANGIOGENICS FOR TREATING METASTATIC CANCER” (CARDIFF ONCOLOGY, INC., priority 2022, published 2024).
Like-named read-outs stand apart in the source and are kept apart here. Each block holds one molecule with its values, some of them ahead of it.

How the values were obtained:
[1] = rodent and nonrodent species
[2] = test system: cell lines, both from solid as well as hematologic tumors
[3] = test system: HT29 human colon adenocarcinoma xenografts; settings: in combination with irinotecan, compared to each agent alone
PLK1 = PLK1 (Homo sapiens, UniProt P53350); settings: including other PLK members
Sequence of PLK1 (P53350 whole entry): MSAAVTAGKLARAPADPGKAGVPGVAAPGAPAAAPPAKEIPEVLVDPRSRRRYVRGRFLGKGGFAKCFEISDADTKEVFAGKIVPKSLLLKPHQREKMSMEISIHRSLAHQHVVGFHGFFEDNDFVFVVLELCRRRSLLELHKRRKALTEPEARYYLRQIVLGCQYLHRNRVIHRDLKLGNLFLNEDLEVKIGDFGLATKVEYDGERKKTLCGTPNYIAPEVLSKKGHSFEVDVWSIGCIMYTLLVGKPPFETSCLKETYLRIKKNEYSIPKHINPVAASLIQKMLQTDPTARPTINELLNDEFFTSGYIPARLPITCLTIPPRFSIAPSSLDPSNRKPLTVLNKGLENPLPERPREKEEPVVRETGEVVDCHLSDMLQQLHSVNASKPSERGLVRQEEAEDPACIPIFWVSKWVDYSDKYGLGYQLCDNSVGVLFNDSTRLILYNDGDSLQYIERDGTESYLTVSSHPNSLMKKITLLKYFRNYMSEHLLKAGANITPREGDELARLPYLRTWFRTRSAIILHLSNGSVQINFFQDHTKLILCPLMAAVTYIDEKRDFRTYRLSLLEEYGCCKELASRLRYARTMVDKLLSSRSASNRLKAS

[4] = test system: disseminated models of AML; settings: in combination with cytarabine
[5] = test system: metastatic colorectal cancer; settings: 2nd line
AML [6] = settings: intravenously in combination with LDAC, compared with LDAC alone; treatment naïve AML unsuitable for induction therapy
AML [7] = settings: combination with LDAC
[8] = bev naïve (without prior bevacizumab)

oral bioavailability [1]: good oral bioavailability
specificity for PLK1 among a panel of 296 kinases (PLK1): high specificity
Molecule: CN1CCN(c2ccc(OC(F)(F)F)c(Nc3ncc4c(n3)-c3c(c(C(N)=O)nn3CCO)CC4)c2)CC1 [onvansertib, 1-(2-hydroxyethyl)-8-{[5-(4-methylpiperazin-1-yl)-2-(trifluoromethoxy)phenyl]amino}-4,5-dihydro-1H-pyrazolo[4,3-h]quinazoline-3-carboxamide]
primary dose-limiting toxicities (patients with advanced/metastatic solid tumors): neutropenia and thrombocytopenia
time to recovery from hematologic toxicities (reversible): ≤ 3 weeks
inhibition of cell proliferation (AML cell lines): inhibited cell proliferation at nanomolar concentrations
cell-cycle effect ([2]; cancer cell lines): mitotic cell-cycle arrest followed by apoptosis
potency in proliferation assays ([2]; large number of cell lines): low nanomolar activity
tumor growth (xenograft models of AML): inhibited
tumor regression [3]: enhanced tumor regression
effect on cytarabine antitumor activity [4]: significantly increased cytarabine antitumor activity

Molecule: bevacizumab: anti-angiogenics (angiogenesis inhibitor), Avastin
mOS [5, 8]: 13.9 months
mPFS [5, 8]: 6.9 months
mOS ([5]; patients with prior bev): 12.5 months
mPFS ([5]; patients with prior bev): 6.7 months

risk of severe infections (AML [7]): increased risk of severe infections
Molecule: CC[C@@H]1C(=O)N(C)c2cnc(Nc3ccc(C(=O)N[C@H]4CC[C@H](N5CCN(CC6CC6)CC5)CC4)cc3OC)nc2N1C(C)C [volasertib]
OS (AML [6]): significant increase in OS
benefit of the combination (AML [7]): no benefit
